# Source: patent US20070037833A1, “Compositions and methods for inhibiting neurodegeneration” (priority 2005, published 2007)
# Entries after “also recorded” stand apart in the source; their conditions may differ.
# How the values were obtained:
# [1] = system: motor neurons expressing G59S p150^glued; test: Motor neuron death from HSV-expressed mutant p150glued in spinal cord cultures; assay type: cell-based, rat; details: 6 days post-infection; treatment daily or every other day
# Text: (§1) Various cDNAs were cloned into the PrpUC amplicon plasmid and were used to generate recombinant HSV as previously described (Neve et al., 1997). The titer of viruses used in these studies were routinely 3-5×10^7 plaque-forming units/ml. The cDNA for wild type/mutant SOD and wild type/mutant p150^glued were gifts of D. Borchelt and E. Holzbaur, respectively. The K295R mutant version of chick src was a gift of J. Brugge.
# (§2) Mutations in superoxide dismutase (SOD) or the p150^glued subunit of dynactin are known to account for a familial form of ALS in a subpopulation of individuals (Rosen, 1993; Puls et al., 2003; Bruijn et al., 2004). We inquired whether expression the mutant forms of SOD or p150^glued caused motor neuron death in vitro and if Trk antagonism was neuroprotective. Recombinant herpes simplex viruses (HSVs) were generated that expressed wild type or mutant form of SOD (G85R) and wild type or mutant p150^glued (G59S). […] Spinal cord cultures were infected with virus at 14 DIV and the number of motor neurons was determined 2, 4, 6 or 8 days later (FIG. 4, panel a.).
# (§3) We next determined if KW6002 could protect motor neurons from the toxic effects of mutant proteins. Spinal cord cultures were infected with viruses expressing wild type or mutant versions of SOD or p150^glued at 14 DIV, then treated with drug or vehicle for 4 days (FIG. 4, panel b.). […]
# [2] = system: motor neurons expressing G85R SOD; test: Motor neuron death from HSV-expressed mutant SOD in spinal cord cultures; assay type: cell-based, rat; details: 6 days post-infection; treatment daily or every other day
# Text: as §1, §2, §3
# Experimental for purified motor neurons: Embryonic Sprague-dawley rat spinal cord neurons were grown on previously established cortical astrocyte monolayers as previously described (Hu and Kalb, 2003). Briefly, the cerebral cortex of postnatal day (P) 1-3 rat pups was dissociated and plated on tissue culture plastic (Primeria) or laminin/polylysine coated glass overslips and maintained in Minimal Essential Media (10% horse serum, 10% fetal bovine serum) and 10 μM AraC was added for 1 day to arrest further proliferation when confluent. Under these conditions, no cortical neurons are present in these cultures. […]
# The media was removed (and saved), cells were exposed to 100 μM kainic acid or vehicle in Locke's buffer for one hour, washed three times in Locke's buffer not containing kainic acid and the original media restored to each dish (Hu and Kalb, 2003). […] To quantify the number of stained cells, we counted the number of labeled cells from three non-overlapping fields using a 5× objective on a Zeiss upright Axioskop microscope and the value from one coverslip was averaged. […] When cell body diameter was assessed in select experiments, a reticule was introduced into an eye piece and the length of the long axis of a neuron noted. […]
smiles,measurement,setting,value
"CCCn1c(=O)[nH]c(=O)c2[nH]cnc21 [enprofylline, 3-propylxanthine]",motor neuron survival / toxicity of G59S p150glued,[1],significantly greater number of motor neurons; also recorded: completely prevented the toxicity of mutant protein expression
same,motor neuron survival / toxicity of G85R SOD,[2],significantly greater number of motor neurons; also recorded: completely prevented the toxicity of mutant protein expression
same,% motor neuron death after excitotoxic insult,"purified motor neurons; 24 hours pre-treatment, grown in BDNF+CT1",3±1%
same,death of motor neurons after kainic acid,purified motor neurons; pre-treated for 24 hrs,No death of motor neurons occurred
